# Measurements: patent publication US20240009201A1, “CYP11B2 BETA HYDROXYLASE INHIBITORS FOR HYPERTENSION” (MINERALYS THERAPEUTICS, INC., priority 2020, published 2024)
# Counter-ions that a name gives are not always drawn.
# Assays:
# Assay type in all cases: in vivo
# CYP11B2 = molecular target: T1, CYP11B2 (Mus musculus, UniProt P15539); assay: Radio-telemetry blood pressure in low renin hypertension animal model (Ay mice); conditions: 3 mg/kg/day via mini-osmotic pump, 7 days, FIG. 14
# T1 construct: from tissue; host or cells: living mice (endogenous enzyme); obese AY mice, Balb/C mice (Jackson Labs #000651)
# T1 sequence (P15539 25-500): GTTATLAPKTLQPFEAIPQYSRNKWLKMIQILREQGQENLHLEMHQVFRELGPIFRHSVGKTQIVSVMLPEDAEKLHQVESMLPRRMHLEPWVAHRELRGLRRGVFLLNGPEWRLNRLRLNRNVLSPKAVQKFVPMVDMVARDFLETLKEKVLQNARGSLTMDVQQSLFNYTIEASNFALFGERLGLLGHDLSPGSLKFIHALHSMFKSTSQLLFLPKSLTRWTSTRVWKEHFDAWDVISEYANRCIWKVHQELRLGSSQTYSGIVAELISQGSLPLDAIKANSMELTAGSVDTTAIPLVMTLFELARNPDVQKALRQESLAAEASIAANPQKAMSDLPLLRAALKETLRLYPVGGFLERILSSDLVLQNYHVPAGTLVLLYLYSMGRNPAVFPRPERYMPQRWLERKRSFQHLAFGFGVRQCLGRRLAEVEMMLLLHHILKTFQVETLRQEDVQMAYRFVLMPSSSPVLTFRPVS
# Protocol: Purpose: To determine whether CYP11B2 blockade (via aldosterone synthase inhibition) improves cardiovascular function in an animal model for low renin hypertension.
# Animal Model: All experiments were conducted in 12-16-week-old obese AY female mice.
# Telemetry Protocol: The telemetry protocol is illustrated in FIG. 13.
# Treatment Protocol: Male and female Balb/C mice (Jackson Labs, Bar Harbor, ME, Catalog #000651) at 10 weeks of age were utilized for all studies. Mice were implanted with indwelling telemeters (carotid catheter) (DSI© Model #PA-C10, New Brighton, MN) under isoflurane anesthesia as previously described. Following a 7-day recovery period baseline BP measurements were consciously recorded for 7 days while mice were on normal salt diet (NS) (0.2% NaCl, Teklad #2918, Envigo, United Kingdom). Mice were then treated with the test article (compound of formula (A), LCI699 or CIN-107, calculated to deliver 3 mg/kg/day) infused via an implanted mini-osmotic pump for an additional 7 days.
# Blood pressure measurement: For each protocol described in FIG. 13, 12 mice were used to record systolic, diastolic, mean arterial pressure heart rate and activity via radio-telemetry. Telemetry transmitters were implanted in the carotid artery at 12 weeks of age. After 2 weeks of recovery from surgery, baseline blood pressure was recorded for 7 consecutive days. Animals were then submitted to the treatment (compound of formula (A) HBr/LCI/CIN).
# Quantification of the effects of compound of formula (A) HBr, LCI, CIN on the degree of RAAS activation: Blood was collected from all the treated mice to investigate the effects of the aldosterone synthase inhibitors on plasma aldosterone, Angiotensin II and indices of RAS activation via LC-MS/MS.
# aldosterone synthase [1] = molecular target: T2, aldosterone synthase (Homo sapiens, UniProt P19099); assay: Randomized, double-blinded, placebo-controlled SAD and MAD study (overall findings)
# T2 construct: from tissue; host or cells: living human subjects (endogenous adrenal enzyme)
# T2 sequence (P19099 25-503): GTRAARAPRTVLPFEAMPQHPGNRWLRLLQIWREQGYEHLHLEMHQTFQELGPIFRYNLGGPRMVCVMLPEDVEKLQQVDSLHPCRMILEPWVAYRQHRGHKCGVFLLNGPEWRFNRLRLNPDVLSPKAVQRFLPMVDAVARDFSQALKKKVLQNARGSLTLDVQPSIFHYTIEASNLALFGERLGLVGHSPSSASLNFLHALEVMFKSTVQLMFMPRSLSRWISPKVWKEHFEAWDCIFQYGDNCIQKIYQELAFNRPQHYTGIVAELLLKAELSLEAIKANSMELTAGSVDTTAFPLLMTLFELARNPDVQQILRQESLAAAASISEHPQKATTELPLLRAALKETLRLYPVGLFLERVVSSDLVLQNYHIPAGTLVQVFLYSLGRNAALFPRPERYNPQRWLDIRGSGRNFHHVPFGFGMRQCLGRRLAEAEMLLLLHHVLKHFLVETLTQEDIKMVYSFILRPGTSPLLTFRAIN
# Source text: Aldosterone is produced by an aldosterone synthase, encoded by the gene CYP11B2. Aldosterone synthase catalyzes the final 3 steps in aldosterone synthesis, sequentially (1) from 11-deoxycorticosterone (11-DOC) to corticosterone, (2) from corticosterone to 18-OH-corticosterone, and (3) from 18-OH-corticosterone to aldosterone. […] 11β-hydroxylase catalyzes the conversion of 11-deoxycortisol to cortisol, and 11-deoxycorticosterone (11-DOC) to corticosterone.
# Because 11-DOC is a substrate for both CYP11B1 and CYP11B2, use of a selective aldosterone synthase inhibitor which preserves the activity of CYP11B1 is important for preventing accumulation of the precursor 11-DOC.
# (§1) Single Ascending Dose (SAD) and Multiple Ascending Dose (MAD) Study
# (§2) A randomized, double-blinded, placebo-controlled study was conducted in which 116 patients were randomized and 87 received the compound of Formula A in the form of an HBr salt.
# aldosterone synthase [2] = molecular target: T2, aldosterone synthase; assay: Single ascending dose (SAD) study
# Protocol: as §1, §2
# Exposure above about 3-4 times the inhibition constant (Ki) was associated with duration of aldosterone suppression (FIG. 4).
# aldosterone synthase [3] = molecular target: T2, aldosterone synthase; assay: Multiple ascending dose (MAD) study
# Protocol: as §1, §2
compound,measurement,setting,value
N#Cc1ccc([C@H]2CCc3cncn32)c(F)c1 [LCI699],mean arterial blood pressure (MAP),CYP11B2,reduced MAP to a similar degree and to a value comparable to that seen in control mice
"CC(=O)N[C@H]1CC[C@H](NC(=O)CN2CCN(c3nncc(-c4ccc(C)cc4)n3)CC2)CC1 [compound of Formula (A), N-[trans-4-(acetylamino)cyclohexyl]-2-{4-[5-(4-methylphenyl)-1,2,4-triazin-3-yl]piperazin-1-yl}acetamide]",dose range of aldosterone suppression without increase in 11-DOC or change in cortisol production (selectivity),aldosterone synthase [1]; in vivo,wide does range at which aldosterone is suppressed without an increase in 11-DOC or change in cortisol production
CCC(=O)N[C@@H]1CCCc2c(-c3ccc4c(c3)CCC(=O)N4C)cncc21 [CIN-107],mean arterial blood pressure (MAP),CYP11B2,reduced MAP to a similar degree and to a value comparable to that seen in control mice
"CC(=O)N[C@H]1CC[C@H](NC(=O)CN2CCN(c3nncc(-c4ccc(C)cc4)n3)CC2)CC1 [Compound A HBr, N-[trans-4-(acetylamino)cyclohexyl]-2-{4-[5-(4-methylphenyl)-1,2,4-triazin-3-yl]piperazin-1-yl}acetamide monohydrobromide]","clinical laboratory, vital signs, ECGs or physical examination",aldosterone synthase [1]; SAD/MAD study,No clinically significant findings
same,deaths or serious adverse events (SAEs),aldosterone synthase [1]; SAD/MAD study,No deaths or serious adverse events (SAEs) occurred
same,effect on cortisol levels,aldosterone synthase [1]; SAD/MAD study,no effect on cortisol levels
same,hyperkalemia,aldosterone synthase [1]; SAD/MAD study,No hyperkalemia was noted
same,plasma aldosterone,"aldosterone synthase [1]; SAD/MAD study, 87 received the compound",rapid and durable reduction/suppression of plasma aldosterone
same,adverse events (AEs),aldosterone synthase [1]; compound groups vs placebo groups,comparable between the groups receiving the compound and placebo groups
same,serum cortisol,aldosterone synthase [2]; FIG. 2 (AUC-24),no evidence of dose-dependent reduction in serum cortisol
same,exposure associated with duration of aldosterone suppression,aldosterone synthase [2]; FIG. 4 (Cpu/Ki),3-4 times the inhibition constant (Ki)
same,duration of maximum aldosterone suppression,aldosterone synthase [2]; FIG. 5,dose-dependent increase
same,reduction of serum aldosterone,"aldosterone synthase [2]; dose of 50 mg, FIG. 1 (AUC-24)",50%
same,11-DOC level,"aldosterone synthase [3]; 360 mg dose level, FIG. 7",Accumulation of 11-DOC
same,serum aldosterone during the washout phase,"aldosterone synthase [3]; 360 mg dose, FIG. 6",overshoot in serum aldosterone
same,Plasma Renin Activity (PRA),aldosterone synthase [3]; FIG. 9,dose-dependent increase
same,dose giving 50% of maximum increase in Plasma Renin Activity (PRA),aldosterone synthase [3]; FIG. 9,40 mg
same,benefits on renal tubular sodium excretion,aldosterone synthase [3]; FIG. 12,seen at lower doses than are required for stimulation of renin and accumulation of 11-DOC
same,serum K+,"aldosterone synthase [3]; all doses tested, FIG. 10","physiological, non-adverse, increase in K^+"
same,adrenocorticotropic hormone (ACTH)-stimulated aldosterone secretion,"aldosterone synthase [3]; all doses tested, FIG. 11",suppression of adrenocorticotropic hormone (ACTH)-stimulated aldosterone secretion
same,dose-effect on duration of maximum aldosterone suppression,"aldosterone synthase [3]; day 7, FIG. 8",consistent with the SAD study
same,drug accumulation,aldosterone synthase [3]; multiple dosing,little drug accumulation
same,mean arterial blood pressure (MAP),CYP11B2,reduced MAP to a similar degree and to a value comparable to that seen in control mice
